Reference: PubChem BioAssay (NCI)
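96-well plates; 48 h exposure; 5 concentrations. Endpoints by linear interpolation between flanking doses. Not reached: highest tested concentration assigned. TGI denotes the concentration required for complete inhibition of growth.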

Tests used:
Test in all cases: NCI-60 cell line screen, 48 h
[1] = system: NCI-H226 lung
[2] = system: T-47D breast
[3] = system: IGROV1 ovarian
[4] = system: U251 CNS
[5] = system: HOP-62 NSCLC
[6] = system: HS 578T breast
[7] = system: A498 renal
[8] = system: NCI-H23 lung
[9] = system: RXF 393 renal
[10] = system: A549 NSCLC
[11] = system: OVCAR-8 ovarian
[12] = system: MDA-MB-435
[13] = system: SF-295 CNS
[14] = system: LOX IMVI melanoma
[15] = system: MOLT-4 leukemia
[16] = system: MDA-MB-231 breast
[17] = system: MDA-N
[18] = system: SW-620 colon
[19] = system: SR leukemia
[20] = system: HL-60(TB) leukemia

SMILES | TGI [1] | TGI [2] | TGI [3] | TGI [4] | TGI [5] | TGI [6] | TGI [7] | TGI [8] | TGI [9] | TGI [10] | TGI [11] | TGI [12] | TGI [13] | TGI [14] | TGI [15] | TGI [16] | TGI [17] | TGI [18] | TGI [19] | TGI [20]
Cn1c(=O)c2c(no[n+]2[O-])n(C)c1=O | 59.3 µM | > 100 µM | 58.7 µM | 49.4 µM | 47.3 µM | 64.9 µM | 48 µM | 47.9 µM | 94.2 µM | > 100 µM | 37 µM | 38.3 µM | > 100 µM | > 100 µM | > 100 µM | 48.1 µM | 50.7 µM | 59.9 µM | > 100 µM | 
C=CC1ON(C)CCc2cc(OC)c(OC)cc21 (stereo not given) | > 100 µM | > 100 µM | > 100 µM | > 100 µM | > 100 µM | > 100 µM | > 100 µM | > 100 µM |  | > 100 µM | > 100 µM | > 100 µM | > 100 µM | > 100 µM | > 100 µM | > 100 µM | > 100 µM | > 100 µM | > 100 µM | > 100 µM
CC(=O)OCCCCn1cnc2nc(Nc3ccccc3)nc(Cl)c21 | > 100 µM | > 100 µM | > 100 µM | > 100 µM | > 100 µM | > 100 µM | > 100 µM |  | > 100 µM | > 100 µM | > 100 µM | > 100 µM | > 100 µM | > 100 µM | > 100 µM | > 100 µM | > 100 µM | > 100 µM | > 100 µM | > 100 µM
c1ccc(C2C3=C(CCCC3)Nc3nc4cc5ccccc5cc4n32)cc1 (stereo not given) | > 100 µM | > 100 µM | > 100 µM | > 100 µM |  | > 100 µM | > 100 µM | > 100 µM | > 100 µM | > 100 µM | > 100 µM | > 100 µM | > 100 µM | > 100 µM | > 100 µM | > 100 µM | > 100 µM | > 100 µM | > 100 µM | > 100 µM
O=C1c2cccnc2S(=O)N1Cc1ccccc1 (stereo not given) | > 100 µM | > 100 µM | > 100 µM | > 100 µM |  | > 100 µM | > 100 µM | > 100 µM | > 100 µM | > 100 µM | > 100 µM | > 100 µM | > 100 µM |  | > 100 µM | > 100 µM | > 100 µM | > 100 µM | > 100 µM | 
O=C1OCC2(CO1)CC1C=CC2C1 (stereo not given) | > 100 µM | > 100 µM | > 100 µM | > 100 µM | > 100 µM | > 100 µM | > 100 µM | > 100 µM | > 100 µM | > 100 µM |  | > 100 µM | > 100 µM | > 100 µM | > 100 µM | > 100 µM | > 100 µM | > 100 µM | > 100 µM | > 100 µM
CC1(C)CC[C@]2(C(=O)O)CC[C@]3(C)C(=CC[C@@H]4[C@@]5(C)C[C@H](O)[C@H](O)[C@@](C)(CO)C5=CC[C@]43C)[C@@H]2C1 |  | > 100 µM | > 100 µM | > 100 µM | > 100 µM | > 100 µM | > 100 µM | > 100 µM |  | > 100 µM | > 100 µM | > 100 µM | > 100 µM | > 100 µM | > 100 µM | > 100 µM | > 100 µM | > 100 µM | > 100 µM | > 100 µM
O=C(c1cccc(OCc2ccccc2)c1OCc1ccccc1)N1CCSC1=S | > 100 µM | > 100 µM | > 100 µM | > 100 µM | > 100 µM | > 45.8 µM | 80.1 µM | 74.9 µM |  | > 100 µM | > 100 µM | > 100 µM | > 100 µM | > 100 µM | 38.7 µM | > 78.2 µM | > 100 µM | > 100 µM | 45.2 µM | 33.1 µM
CC1=NN(C(=O)CC(=O)Nc2ccccc2Cl)C(=O)C1N=Nc1ccc(C(=O)O)cc1 (stereo not given) |  | > 100 µM | > 100 µM | > 100 µM | > 100 µM | > 100 µM | > 100 µM | > 100 µM | > 100 µM | > 100 µM | > 100 µM | > 100 µM | > 100 µM | > 100 µM | > 100 µM | > 100 µM | > 100 µM | > 100 µM | > 100 µM | > 100 µM
CCOC(=O)CC(=O)C(=O)NNC1=NCCCN1 | > 100 µM | > 100 µM | > 100 µM | > 100 µM | > 100 µM | > 100 µM |  | > 100 µM | > 100 µM | > 100 µM | > 100 µM | > 100 µM | > 100 µM | > 100 µM | > 100 µM | > 100 µM | > 100 µM | > 100 µM | > 100 µM | > 100 µM
Cc1ccc(S(=O)(=O)OC2=C/C(=N\c3onc(C)c3C)c3ccccc3C2=O)cc1 | > 100 µM | 64.8 µM |  | 21.1 µM | 54.8 µM | > 100 µM | > 100 µM | 73.8 µM |  | > 100 µM | 36.8 µM | 31.8 µM | > 100 µM | 37.9 µM | 24.2 µM | 41.6 µM | > 100 µM | 80.1 µM | > 100 µM | > 100 µM
